Assay results: patent US20250353891A1 (MEDIMMUNE LIMITED, priority 2022, published 2025)
Starred links: 1 amine or outer side, 2 acyl side, 3 side chain; linkers in the order of their positions; H or OH if unused. Non-standard residues stand in square brackets, D forms with d. Residues, ends and D or L forms follow the SMILES beside them. Groups on a side chain read outwards from the residue. *: point of attachment. C20 diacid = O=C(O)CCCCCCCCCCCCCCCCCCC(=O)*; C18 diacid = O=C(O)CCCCCCCCCCCCCCCCC(=O)*; γGlu = O=C(O)[C@H](CCC(=O)[*:2])N[*:1]; αMeF = C[C@](N)(Cc1ccccc1)C(=O)O; AEEA = NCCOCCOCC(=O)O; Aib = CC(C)(N)C(=O)O

Legend:
[1] = biological target: human glucagon receptor (hGCGR) (Homo sapiens, UniProt P47871); assay: cAMP production (HTRF) in CHO cells expressing hGCGR; assay type: cell-based; design: expressed in transfected cells; details: Table 7, peptides modified at position 20; cAMP in CHO hGCGR cells; geometric mean; read-out: hGluc-R EC50
Outline: (§1)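 Read-out: HTRF cAMP (anti-cAMP cryptate donor, cAMP-d2 acceptor in conjugate/lysis buffer), converted to % Delta F and fitted by 4-parameter logistic for EC50. Cell densities were 1×10^5 cells/mL (hGLP-1R) or 2×10^5 cells/mL (hGCGR). Stimulation lasted 30 min at room temperature.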

[2] = biological target: human GLP-1 receptor (hGLP-1R) (Homo sapiens, UniProt P43220); assay: cAMP production (HTRF) in CHO cells expressing hGLP-1R; assay type: cell-based; design: expressed in transfected cells; details: for EC50: Table 7, peptides modified at position 20, cAMP in CHO hGLP-1R cells, geometric mean, read-out: hGLP-1R EC50; for % Relative Potency Ratio: Table 7, % GLP-1R activity relative to GLP-1 / % GlucR activity relative to glucagon
Outline: as §1

human GLP-1 receptor (hGLP-1R), sequence (P43220 24-463): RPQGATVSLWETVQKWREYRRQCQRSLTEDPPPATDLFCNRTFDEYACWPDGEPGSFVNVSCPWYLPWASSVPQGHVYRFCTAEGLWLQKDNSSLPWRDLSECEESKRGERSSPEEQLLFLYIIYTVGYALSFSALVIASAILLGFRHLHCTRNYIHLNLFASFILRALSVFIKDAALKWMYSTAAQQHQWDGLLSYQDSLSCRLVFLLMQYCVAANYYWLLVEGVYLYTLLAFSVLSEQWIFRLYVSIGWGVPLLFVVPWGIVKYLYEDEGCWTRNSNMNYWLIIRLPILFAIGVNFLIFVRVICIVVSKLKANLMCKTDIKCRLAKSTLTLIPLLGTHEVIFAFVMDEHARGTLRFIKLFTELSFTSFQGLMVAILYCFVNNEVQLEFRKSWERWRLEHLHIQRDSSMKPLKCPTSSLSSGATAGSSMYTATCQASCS
human glucagon receptor (hGCGR), sequence (P47871 26-477): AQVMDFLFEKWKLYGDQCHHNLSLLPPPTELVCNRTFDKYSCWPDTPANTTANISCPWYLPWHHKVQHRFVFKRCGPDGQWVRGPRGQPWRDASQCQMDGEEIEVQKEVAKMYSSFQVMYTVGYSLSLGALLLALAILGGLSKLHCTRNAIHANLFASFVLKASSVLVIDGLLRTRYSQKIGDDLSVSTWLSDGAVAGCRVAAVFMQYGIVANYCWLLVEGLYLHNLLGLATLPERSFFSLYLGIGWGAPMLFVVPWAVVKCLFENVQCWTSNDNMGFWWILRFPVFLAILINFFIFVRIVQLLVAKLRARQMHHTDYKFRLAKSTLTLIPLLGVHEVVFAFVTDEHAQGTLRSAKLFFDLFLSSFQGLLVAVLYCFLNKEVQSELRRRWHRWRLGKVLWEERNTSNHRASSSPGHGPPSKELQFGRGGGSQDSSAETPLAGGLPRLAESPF

Row | Structure (SMILES) | EC50 [1] [nM] | EC50 [2] [nM] | % Relative Potency Ratio [2]
1 | CC[C@H](C)[C@H](NC(=O)C(C)(C)NC(=O)[C@H](CCC(N)=O)NC(=O)[C@@H](NC(=O)[C@H](Cc1ccccc1)NC(=O)[C@H](CC(=O)O)NC(=O)[C@H](CCCCNC(=O)COCCOCCNC(=O)COCCOCCNC(=O)CC[C@H](NC(=O)CC[C@H](NC(=O)CCCCCCCCCCCCCCCCC(=O)O)C(=O)O)C(=O)O)NC(=O)[C@H](C)NC(=O)[C@H](C)NC(=O)[C@H](CCCNC(=N)N)NC(=O)[C@H](CO)NC(=O)[C@H](CC(=O)O)NC(=O)[C@H](CC(C)C)NC(=O)[C@](C)(Cc1ccccc1)NC(=O)[C@H](CCCCN)NC(=O)[C@H](CO)NC(=O)[C@@H](NC(=O)[C@H](CC(=O)O)NC(=O)[C@H](CO)NC(=O)[C@@H](NC(=O)[C@](C)(Cc1ccccc1)NC(=O)[C@H](CO)NC(=O)CNC(=O)[C@H](Cc1c[nH]cn1)NC(=O)C(C)(C)NC(=O)[C@@H](N)Cc1c[nH]cn1)[C@@H](C)O)C(C)C)C(C)C)C(=O)N[C@@H](C)C(=O)N[C@@H](CC(N)=O)C(=O)N[C@H](C(=O)NCC(=O)NCC(N)=O)[C@@H](C)O [Peptide 237] (H-H[Aib]HGS[αMeF]TSDVSK[αMeF]LDSRAAK([AEEA-AEEA-γGlu-γGlu-C18 diacid])DFVQ[Aib]IANTGG-NH2; N-terminus assumed) | 0.299 | 0.0267 | 22.1
2 | CC[C@H](C)[C@H](NC(=O)[C@H](Cc1c[nH]c2ccccc12)NC(=O)[C@H](CCC(N)=O)NC(=O)[C@@H](NC(=O)[C@](C)(Cc1ccccc1)NC(=O)[C@H](CC(=O)O)NC(=O)[C@H](CCCCNC(=O)COCCOCCNC(=O)COCCOCCNC(=O)CC[C@H](NC(=O)CC[C@H](NC(=O)CCCCCCCCCCCCCCCCCCC(=O)O)C(=O)O)C(=O)O)NC(=O)[C@H](C)NC(=O)[C@H](C)NC(=O)[C@H](CCCNC(=N)N)NC(=O)[C@H](CO)NC(=O)[C@H](CC(=O)O)NC(=O)[C@H](CC(C)C)NC(=O)[C@](C)(Cc1ccccc1)NC(=O)[C@H](CCCCN)NC(=O)[C@H](CO)NC(=O)[C@@H](NC(=O)[C@H](CC(=O)O)NC(=O)[C@H](CO)NC(=O)[C@@H](NC(=O)[C@](C)(Cc1ccccc1)NC(=O)[C@H](CO)NC(=O)CNC(=O)[C@H](Cc1c[nH]cn1)NC(=O)C(C)(C)NC(=O)[C@@H](N)Cc1c[nH]cn1)[C@@H](C)O)C(C)C)C(C)C)C(=O)N[C@@H](C)C(=O)N[C@@H](CC(N)=O)C(=O)N[C@H](C(=O)NCC(N)=O)[C@@H](C)O [Peptide 238] (H-H[Aib]HGS[αMeF]TSDVSK[αMeF]LDSRAAK([AEEA-AEEA-γGlu-γGlu-C20 diacid])D[αMeF]VQWIANTG-NH2) | 0.99 | 0.155 | 12.7
3 | CC[C@H](C)[C@H](NC(=O)[C@H](Cc1c[nH]c2ccccc12)NC(=O)[C@H](CCC(N)=O)NC(=O)[C@@H](NC(=O)[C@](C)(Cc1ccccc1)NC(=O)[C@H](CC(=O)O)NC(=O)[C@H](CCCCNC(=O)COCCOCCNC(=O)COCCOCCNC(=O)CC[C@H](NC(=O)CC[C@H](NC(=O)CCCCCCCCCCCCCCCCCCC(=O)O)C(=O)O)C(=O)O)NC(=O)[C@H](C)NC(=O)[C@H](C)NC(=O)[C@H](CCCNC(=N)N)NC(=O)[C@H](CO)NC(=O)[C@H](CC(=O)O)NC(=O)[C@H](CC(C)C)NC(=O)[C@](C)(Cc1ccccc1)NC(=O)[C@H](CCCCN)NC(=O)[C@H](CO)NC(=O)[C@@H](NC(=O)[C@H](CC(=O)O)NC(=O)[C@H](CO)NC(=O)[C@@H](NC(=O)[C@](C)(Cc1ccccc1)NC(=O)[C@H](CO)NC(=O)CNC(=O)[C@H](Cc1c[nH]cn1)NC(=O)C(C)(C)NC(=O)[C@@H](N)Cc1c[nH]cn1)[C@@H](C)O)C(C)C)C(C)C)C(=O)N[C@@H](C)C(=O)N[C@@H](CC(N)=O)C(=O)N[C@H](C(=O)NCC(=O)NCC(N)=O)[C@@H](C)O [Peptide 239] (H-H[Aib]HGS[αMeF]TSDVSK[αMeF]LDSRAAK([AEEA-AEEA-γGlu-γGlu-C20 diacid])D[αMeF]VQWIANTGG-NH2) | 0.705 | 0.105 | 13.2
4 | CC[C@H](C)[C@H](NC(=O)[C@H](Cc1c[nH]c2ccccc12)NC(=O)[C@H](CCC(N)=O)NC(=O)[C@@H](NC(=O)[C@](C)(Cc1ccccc1)NC(=O)[C@H](CC(=O)O)NC(=O)[C@H](CCCCNC(=O)COCCOCCNC(=O)COCCOCCNC(=O)CC[C@H](NC(=O)CC[C@H](NC(=O)CCCCCCCCCCCCCCCCC(=O)O)C(=O)O)C(=O)O)NC(=O)[C@H](C)NC(=O)[C@H](C)NC(=O)[C@H](CCCNC(=N)N)NC(=O)[C@H](CO)NC(=O)[C@H](CC(=O)O)NC(=O)[C@H](CC(C)C)NC(=O)[C@](C)(Cc1ccccc1)NC(=O)[C@H](CCCCN)NC(=O)[C@H](CO)NC(=O)[C@@H](NC(=O)[C@H](CC(=O)O)NC(=O)[C@H](CO)NC(=O)[C@@H](NC(=O)[C@](C)(Cc1ccccc1)NC(=O)[C@H](CO)NC(=O)CNC(=O)[C@H](Cc1c[nH]cn1)NC(=O)C(C)(C)NC(=O)[C@@H](N)Cc1c[nH]cn1)[C@@H](C)O)C(C)C)C(C)C)C(=O)N[C@@H](C)C(=O)N[C@@H](CC(N)=O)C(=O)N[C@H](C(=O)NCC(N)=O)[C@@H](C)O [Peptide 240] (H-H[Aib]HGS[αMeF]TSDVSK[αMeF]LDSRAAK([AEEA-AEEA-γGlu-γGlu-C18 diacid])D[αMeF]VQWIANTG-NH2) | 0.332 | 0.0571 | 11.5
5 | CC[C@H](C)[C@H](NC(=O)[C@H](Cc1c[nH]c2ccccc12)NC(=O)[C@H](CCC(N)=O)NC(=O)[C@@H](NC(=O)[C@](C)(Cc1ccccc1)NC(=O)[C@H](CC(=O)O)NC(=O)[C@H](CCCCNC(=O)COCCOCCNC(=O)COCCOCCNC(=O)CC[C@H](NC(=O)CC[C@H](NC(=O)CCCCCCCCCCCCCCCCC(=O)O)C(=O)O)C(=O)O)NC(=O)[C@H](C)NC(=O)[C@H](C)NC(=O)[C@H](CCCNC(=N)N)NC(=O)[C@H](CO)NC(=O)[C@H](CC(=O)O)NC(=O)[C@H](CC(C)C)NC(=O)[C@](C)(Cc1ccccc1)NC(=O)[C@H](CCCCN)NC(=O)[C@H](CO)NC(=O)[C@@H](NC(=O)[C@H](CC(=O)O)NC(=O)[C@H](CO)NC(=O)[C@@H](NC(=O)[C@](C)(Cc1ccccc1)NC(=O)[C@H](CO)NC(=O)CNC(=O)[C@H](Cc1c[nH]cn1)NC(=O)C(C)(C)NC(=O)[C@@H](N)Cc1c[nH]cn1)[C@@H](C)O)C(C)C)C(C)C)C(=O)N[C@@H](C)C(=O)N[C@@H](CC(N)=O)C(=O)N[C@H](C(=O)NCC(=O)NCC(N)=O)[C@@H](C)O [Peptide 241] (H-H[Aib]HGS[αMeF]TSDVSK[αMeF]LDSRAAK([AEEA-AEEA-γGlu-γGlu-C18 diacid])D[αMeF]VQWIANTGG-NH2; N-terminus assumed) | 0.175 | 0.0358 | 9.7
